Key:
Type in all cases: in vivo
Details in all cases: 250 g/ha unless otherwise stated, evaluated after 13 days, five-point scale
[1] = tested on: Amaranthus retoflexus (AMARE); assay: Test 1 glasshouse herbicide test, post-emergence application (Table B1)
In short: (§1)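 Pots sown in standard soil; sprayed 1 day (pre-emergence) or 8 days (post-emergence) after sowing at 250 g/ha unless stated, in acetone/water (50:50) with 0.5% Tween 20. Glasshouse 24/16 °C, 14 h light, 65% humidity; damage scored at 13 days on a 1–5 scale (5=81–100%, 1=0–20%).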

[2] = tested on: Echinochloa crus-galli (ECHCG); assay: as above
In short: as §1

[3] = tested on: Ipomoea hederacea (IPOHE); assay: as above
In short: as §1

[4] = tested on: Lolium perenne (LOLPE); assay: as above
In short: as §1

[5] = tested on: Setaria faberi (SETFA); assay: as above
In short: as §1

[6] = tested on: Solanum nigrum (SOLNI); assay: as above
In short: as §1

[7] = tested on: Amaranthus retoflexus (AMARE); assay: Test 1 glasshouse herbicide test, pre-emergence application (Table B2)
In short: as §1

[8] = tested on: Echinochloa crus-galli (ECHCG); assay: as above
In short: as §1

[9] = tested on: Ipomoea hederacea (IPOHE); assay: as above
In short: as §1

[10] = tested on: Lolium perenne (LOLPE); assay: as above
In short: as §1

[11] = tested on: Setaria faberi (SETFA); assay: as above
In short: as §1

[12] = tested on: Solanum nigrum (SOLNI); assay: as above
In short: as §1

Structure (SMILES): [O-][S+](CCC(F)(F)F)c1ccccc1Oc1ncc(Cl)cn1 (stereo not drawn) [Compound A2]
- % phytotoxicity AMARE, post-emergence application [1]: 5 (5=81 to 100%)
- % phytotoxicity ECHCG, post-emergence application [2]: 4 (4=61 to 80%)
- % phytotoxicity IPOHE, post-emergence application [3]: 4 (4=61 to 80%)
- % phytotoxicity LOLPE, post-emergence application [4]: 4 (4=61 to 80%)
- % phytotoxicity SETFA, post-emergence application [5]: 4 (4=61 to 80%)
- % phytotoxicity SOLNI, post-emergence application [6]: 5 (5=81 to 100%)
- % phytotoxicity AMARE, pre-emergence application [7]: 5 (5=81 to 100%)
- % phytotoxicity ECHCG, pre-emergence application [8]: 5 (5=81 to 100%)
- % phytotoxicity IPOHE, pre-emergence application [9]: 2 (2=21 to 40%)
- % phytotoxicity LOLPE, pre-emergence application [10]: 3 (3=41 to 60%)
- % phytotoxicity SETFA, pre-emergence application [11]: 5 (5=81 to 100%)
- % phytotoxicity SOLNI, pre-emergence application [12]: 5 (5=81 to 100%)

Structure (SMILES): O=S(=O)(CCCC(F)(F)F)c1ccccc1Oc1ncc(Cl)cn1 [Compound A6]
- % phytotoxicity AMARE, post-emergence application [1]: 5 (5=81 to 100%)
- % phytotoxicity ECHCG, post-emergence application [2]: 3 (3=41 to 60%)
- % phytotoxicity IPOHE, post-emergence application [3]: 3 (3=41 to 60%)
- % phytotoxicity LOLPE, post-emergence application [4]: 2 (2=21 to 40%)
- % phytotoxicity SETFA, post-emergence application [5]: 4 (4=61 to 80%)
- % phytotoxicity SOLNI, post-emergence application [6]: 5 (5=81 to 100%)
- % phytotoxicity AMARE, pre-emergence application [7]: 5 (5=81 to 100%)
- % phytotoxicity ECHCG, pre-emergence application [8]: 4 (4=61 to 80%)
- % phytotoxicity IPOHE, pre-emergence application [9]: 2 (2=21 to 40%)
- % phytotoxicity LOLPE, pre-emergence application [10]: 2 (2=21 to 40%)
- % phytotoxicity SETFA, pre-emergence application [11]: 5 (5=81 to 100%)
- % phytotoxicity SOLNI, pre-emergence application [12]: 3 (3=41 to 60%)

Structure (SMILES): [O-][S+](CCC(F)(F)F)c1c(Cl)cccc1Oc1ncc(Cl)cn1 (stereo not drawn) [Compound A11]
- % phytotoxicity AMARE, post-emergence application [1]: 5 (5=81 to 100%)
- % phytotoxicity ECHCG, post-emergence application [2]: 5 (5=81 to 100%)
- % phytotoxicity IPOHE, post-emergence application [3]: 5 (5=81 to 100%)
- % phytotoxicity LOLPE, post-emergence application [4]: 4 (4=61 to 80%)
- % phytotoxicity SETFA, post-emergence application [5]: 5 (5=81 to 100%)
- % phytotoxicity SOLNI, post-emergence application [6]: 5 (5=81 to 100%)
- % phytotoxicity AMARE, pre-emergence application [7]: 5 (5=81 to 100%)
- % phytotoxicity ECHCG, pre-emergence application [8]: 5 (5=81 to 100%)
- % phytotoxicity IPOHE, pre-emergence application [9]: 5 (5=81 to 100%)
- % phytotoxicity LOLPE, pre-emergence application [10]: 5 (5=81 to 100%)
- % phytotoxicity SETFA, pre-emergence application [11]: 5 (5=81 to 100%)
- % phytotoxicity SOLNI, pre-emergence application [12]: 5 (5=81 to 100%)

Structure (SMILES): FC(F)(F)CCSc1c(Cl)cccc1Oc1ncc(Cl)cn1 [Compound A10, 5-chloro-2-[3-chloro-2-(3,3,3-trifluoropropylsulfanyl)phenoxy]pyrimidine]
- % phytotoxicity AMARE, post-emergence application [1]: 5 (5=81 to 100%)
- % phytotoxicity ECHCG, post-emergence application [2]: 5 (5=81 to 100%)
- % phytotoxicity IPOHE, post-emergence application [3]: 4 (4=61 to 80%)
- % phytotoxicity LOLPE, post-emergence application [4]: 5 (5=81 to 100%)
- % phytotoxicity SETFA, post-emergence application [5]: 5 (5=81 to 100%)
- % phytotoxicity SOLNI, post-emergence application [6]: 5 (5=81 to 100%)
- % phytotoxicity AMARE, pre-emergence application [7]: 5 (5=81 to 100%)
- % phytotoxicity ECHCG, pre-emergence application [8]: 5 (5=81 to 100%)
- % phytotoxicity IPOHE, pre-emergence application [9]: 3 (3=41 to 60%)
- % phytotoxicity LOLPE, pre-emergence application [10]: 4 (4=61 to 80%)
- % phytotoxicity SETFA, pre-emergence application [11]: 5 (5=81 to 100%)
- % phytotoxicity SOLNI, pre-emergence application [12]: 4 (4=61 to 80%)

Structure (SMILES): FC(F)(F)CCSc1ccccc1Oc1ncc(Cl)cn1 [Compound A1]
- % phytotoxicity AMARE, pre-emergence application [7]: 5 (5=81 to 100%)
- % phytotoxicity ECHCG, pre-emergence application [8]: 4 (4=61 to 80%)
- % phytotoxicity IPOHE, pre-emergence application [9]: 3 (3=41 to 60%)
- % phytotoxicity LOLPE, pre-emergence application [10]: 3 (3=41 to 60%)
- % phytotoxicity SETFA, pre-emergence application [11]: 5 (5=81 to 100%)
- % phytotoxicity SOLNI, pre-emergence application [12]: 4 (4=61 to 80%)

Structure (SMILES): FC(F)(F)CCSc1ccccc1Oc1ncc(Cl)cn1 [Al]
- % phytotoxicity AMARE, post-emergence application [1]: 5 (5=81 to 100%)
- % phytotoxicity ECHCG, post-emergence application [2]: 4 (4=61 to 80%)
- % phytotoxicity IPOHE, post-emergence application [3]: 4 (4=61 to 80%)
- % phytotoxicity LOLPE, post-emergence application [4]: 4 (4=61 to 80%)
- % phytotoxicity SETFA, post-emergence application [5]: 4 (4=61 to 80%)
- % phytotoxicity SOLNI, post-emergence application [6]: 4 (4=61 to 80%)

Structure (SMILES): CCC(C)Sc1ccccc1Oc1ncc(Cl)cn1 (racemic) [Compound A65]
- % phytotoxicity AMARE, post-emergence application [1]: 1 (1=0 to 20%)
- % phytotoxicity ECHCG, post-emergence application [2]: 4 (4=61 to 80%)
- % phytotoxicity IPOHE, post-emergence application [3]: 3 (3=41 to 60%)
- % phytotoxicity SETFA, post-emergence application [5]: 3 (3=41 to 60%)
- % phytotoxicity AMARE, pre-emergence application [7]: 3 (3=41 to 60%)
- % phytotoxicity ECHCG, pre-emergence application [8]: 4 (4=61 to 80%)
- % phytotoxicity IPOHE, pre-emergence application [9]: 1 (1=0 to 20%)
- % phytotoxicity SETFA, pre-emergence application [11]: 4 (4=61 to 80%)

Structure (SMILES): N#Cc1cccc(Oc2ncc(Br)cn2)c1SCCCCC(F)(F)F [Compound A121]
- % phytotoxicity AMARE, post-emergence application [1]: 5 (5=81 to 100%)
- % phytotoxicity ECHCG, post-emergence application [2]: 3 (3=41 to 60%)
- % phytotoxicity IPOHE, post-emergence application [3]: 3 (3=41 to 60%)
- % phytotoxicity SETFA, post-emergence application [5]: 4 (4=61 to 80%)
- % phytotoxicity AMARE, pre-emergence application [7]: 5 (5=81 to 100%)
- % phytotoxicity ECHCG, pre-emergence application [8]: 3 (3=41 to 60%)
- % phytotoxicity IPOHE, pre-emergence application [9]: 2 (2=21 to 40%)
- % phytotoxicity SETFA, pre-emergence application [11]: 5 (5=81 to 100%)

Structure (SMILES): O=S(=O)(CCC(F)F)c1c(Cl)cccc1Oc1ncc(Cl)cn1 [Compound A96]
- % phytotoxicity AMARE, post-emergence application [1]: 5 (5=81 to 100%)
- % phytotoxicity ECHCG, post-emergence application [2]: 5 (5=81 to 100%)
- % phytotoxicity IPOHE, post-emergence application [3]: 5 (5=81 to 100%)
- % phytotoxicity SETFA, post-emergence application [5]: 5 (5=81 to 100%)
- % phytotoxicity AMARE, pre-emergence application [7]: 5 (5=81 to 100%)
- % phytotoxicity ECHCG, pre-emergence application [8]: 5 (5=81 to 100%)
- % phytotoxicity IPOHE, pre-emergence application [9]: 5 (5=81 to 100%)
- % phytotoxicity SETFA, pre-emergence application [11]: 5 (5=81 to 100%)

Structure (SMILES): CCCC(C)CS(=O)(=O)c1ccccc1Oc1ncc(Cl)cn1 (racemic) [Compound A74]
- % phytotoxicity AMARE, post-emergence application [1]: 3 (3=41 to 60%)
- % phytotoxicity ECHCG, post-emergence application [2]: 1 (1=0 to 20%)
- % phytotoxicity IPOHE, post-emergence application [3]: 1 (1=0 to 20%)
- % phytotoxicity SETFA, post-emergence application [5]: 1 (1=0 to 20%)
- % phytotoxicity AMARE, pre-emergence application [7]: 1 (1=0 to 20%)
- % phytotoxicity ECHCG, pre-emergence application [8]: 1 (1=0 to 20%)
- % phytotoxicity IPOHE, pre-emergence application [9]: 1 (1=0 to 20%)
- % phytotoxicity SETFA, pre-emergence application [11]: 1 (1=0 to 20%)

Structure (SMILES): N#Cc1cccc(Oc2ncc(Br)cn2)c1S(=O)(=O)CCCC(F)(F)F [Compound A118]
- % phytotoxicity AMARE, post-emergence application [1]: 5 (5=81 to 100%)
- % phytotoxicity ECHCG, post-emergence application [2]: 4 (4=61 to 80%)
- % phytotoxicity IPOHE, post-emergence application [3]: 4 (4=61 to 80%)
- % phytotoxicity SETFA, post-emergence application [5]: 4 (4=61 to 80%)
- % phytotoxicity AMARE, pre-emergence application [7]: 5 (5=81 to 100%)
- % phytotoxicity ECHCG, pre-emergence application [8]: 5 (5=81 to 100%)
- % phytotoxicity IPOHE, pre-emergence application [9]: 5 (5=81 to 100%)
- % phytotoxicity SETFA, pre-emergence application [11]: 5 (5=81 to 100%)

Structure (SMILES): CCC(CC)CSc1ccccc1Oc1ncc(Cl)cn1 [Compound A64]
- % phytotoxicity AMARE, post-emergence application [1]: 2 (2=21 to 40%)
- % phytotoxicity ECHCG, post-emergence application [2]: 1 (1=0 to 20%)
- % phytotoxicity IPOHE, post-emergence application [3]: 2 (2=21 to 40%)
- % phytotoxicity SETFA, post-emergence application [5]: 2 (2=21 to 40%)
- % phytotoxicity AMARE, pre-emergence application [7]: 1 (1=0 to 20%)
- % phytotoxicity ECHCG, pre-emergence application [8]: 1 (1=0 to 20%)
- % phytotoxicity IPOHE, pre-emergence application [9]: 1 (1=0 to 20%)
- % phytotoxicity SETFA, pre-emergence application [11]: 1 (1=0 to 20%)

Reference: patent US20220324815A1, “2-PHENOXY-PYRIMIDINE DERIVATIVES AS HERBICIDAL COMPOUNDS” (SYNGENTA CROP PROTECTION AG, priority 2019, published 2022)
